From patent US9695155B2, “Herbicidal substituted pyrimidinyloxy benzene compounds” (E. I. DU PONT DE NEMOURS AND COMPANY, priority 2013, dated 2017) come the findings set out here.

In assay [1] the test system is pigweed. The assay can be described thus: Test A preemergence. It is filed as in vivo, Amaranthus retroflexus. The method in brief: (§1)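 Visual 0–100 rating (100 = complete control) taken about 10 d post-treatment relative to untreated checks. Preemergence: directed soil spray on sown loam/sand pots. Postemergence: seedlings 2–10 cm, 1–2 leaf. Non-phytotoxic solvent formulation with surfactant.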

The test system of a further assay is lambsquarters. The experiment in a line: Test C preemergence. In kind it is in vivo, Chenopodium album. From the text:
(§2) Seeds of plant species selected from blackgrass (Alopecurus myosuroides), Italian ryegrass (Lolium multiflorum), wheat, winter (winter wheat, Triticum aestivum), galium (catchweed bedstraw, Galium aparine), corn (Zea mays), large (Lg) crabgrass (Digitaria sanguinalis), giant foxtail (Setaria faberii), johnsongrass (Sorghum halepense), lambsquarters (Chenopodium album), morningglory (Ipomoea coccinea), yellow nutsedge (Cyperus esculentus), pigweed (Amaranthus retroflexus), ragweed (common ragweed, Ambrosia elatior), soybean (Glycine max), barnyardgrass (Echinochloa crus-galli), oilseed rape (Brassica napus), waterhemp (common waterhemp, Amaranthus rudis), kochia (Kochia scoparia), wild oat (Avena fatua), surinam grass (Brachiaria decumbens), foxtail, green (green foxtail, Setaria viridis), goosegrass (Eleusine indica), bromegrass, downy (downy bromegrass, Bromus tectorum), nightshade (eastern black nightshade, Solanum ptycanthum), cocklebur (common cocklebur, Xanthium strumarium), cupgrass, woolly (woolly cupgrass, Eriochloa villosa), bermudagrass (Cynodon dactylon), sunflower, (common oilseed sunflower, Helianthus annuus), Russian thistle (Salsola kali), and velvetleaf (Abutilon theophrasti) were planted into a blend of loam soil and sand and treated preemergence with test chemicals formulated in a non-phytotoxic solvent mixture which included a surfactant.
(§3) At the same time, plants selected from these crop and weed species and also barley, winter (winter barley, Hordeum vulgare), windgrass (Apera spica-venti), chickweed (common chickweed, Stellaria media), deadnettle (henbit deadnettle, Lamium amplexicaule), and canarygrass (littleseed canarygrass, Phalaris minor) were planted in pots containing Redi-Earth® planting medium (Scotts Company, 14111 Scottslawn Road, Marysville, Ohio 43041) comprising spaghnum peat moss, vermiculite, wetting agent and starter nutrients and treated with postemergence applications of test chemicals formulated in the same manner. Plants ranged in height from 2 to 18 cm (1- to 4-leaf stage) for postemergence treatments. Treated plants and controls were maintained in a greenhouse for 13 to 15 days, after which time all species were compared to controls and visually evaluated. Plant response ratings, summarized in Table C, are based on a scale of 0 to 100 where 0 is no effect and 100 is complete control. A dash (-) response means no test result.

The test system of the next assay is johnsongrass. The experiment in a line: Test C preemergence. It is filed as in vivo, Sorghum halepense. A digest of the protocol:
(§4)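 Seeds are planted in blended loam soil and sand and treated preemergence, while seedlings in a peat moss/vermiculite medium receive postemergence sprays at 2 to 18 cm height. All plants stay in the greenhouse for 13 to 15 days before visual comparison with controls on a 0–100 scale.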

A further assay concerns giant foxtail. The experiment in a line: Test A postemergence. It is filed as in vivo, Setaria faberii. The method in brief:
as §1

The next assay deals with corn. The assay can be described thus: Test A postemergence. In kind it is in vivo, Zea mays. A digest of the protocol: as §1
In assay [2] the test system is pigweed. The assay can be described thus: Test A postemergence. In kind it is in vivo, Amaranthus retroflexus. A digest of the protocol:
as §1

For the next assay, the system named is large (Lg) crabgrass. The assay can be described thus: Test C preemergence. In kind it is in vivo, Digitaria sanguinalis. The method in brief: as §4
Another assay deals with barnyardgrass. The experiment in a line: Test A preemergence. It is filed as in vivo, Echinochloa crus-galli. A digest of the protocol: as §1
For the next assay, the system named is ragweed. The assay can be described thus: Test C preemergence. It is filed as in vivo, Ambrosia elatior.
Excerpt: as §2, §3

Setting [3] is: 31 g ai/ha, 0 to 100 scale where 0 is no effect and 100 is complete control, visual, approximately 10 days.
Where [4] appears, read: 125 g ai/ha, 0 to 100 scale where 0 is no effect and 100 is complete control.
Where [5] appears, read: 16 g ai/ha, preemergence, scale 0 to 100 (0 no effect, 100 complete control).
Setting [6] is: 62 g ai/ha, preemergence, scale 0 (no effect) to 100 (complete control).
Where [7] appears, read: 125 g ai/ha, preemergence, scale 0 (no effect) to 100 (complete control).
[8] abbreviates: 31 g ai/ha, 0 to 100 scale, 0 no effect, 100 complete control.
[9] abbreviates: Preemergence, 62 g ai/ha, scale 0 to 100, 0 no effect, 100 complete control.
[10] abbreviates: 125 g ai/ha, 0 to 100 scale, 0 no effect, 100 complete control.

With `N#Cc1cnn(-c2c(CF)cccc2Oc2ncc(F)cn2)c1` [Compound 151], the “Plant response rating, Pigweed” value with pigweed [1] (setting [3]) came out at 90; in the assay with pigweed [1] (setting [4]), 90; with pigweed [2] (setting [8]) it was 20. Besides, the “Lambsquarters plant response rating” value in the assay with lambsquarters (setting [5]), in the assay on lambsquarters (setting [6]) and in the assay with lambsquarters (setting [7]) was 100 each time. Also, the “Johnsongrass plant response rating” value with johnsongrass (setting [5]) stood at 0; with johnsongrass (setting [6]) it was 50; in the assay on johnsongrass (setting [7]) it was 65. For the same molecule, the “Plant response rating, Foxtail, Giant” value with giant foxtail (setting [8]) was determined as 0. For the same molecule, the “Foxtail, Giant plant response rating” value in the assay on giant foxtail (setting [4]) was determined as 40. Also, the “Plant response rating, Corn” value in the assay on corn (setting [8]) is listed as 0. The “Corn plant response rating” value in the assay with corn (setting [4]) is listed as 40. Also, in the assay on pigweed [2] (setting [4]), the “Pigweed plant response rating” value came to 70. Also, the “Crabgrass, Large plant response rating” value in the assay with large (Lg) crabgrass (setting [5]) was determined as 5; in the assay on large (Lg) crabgrass (setting [6]) it was 98; in the assay on large (Lg) crabgrass (setting [7]), 100. In the assay with large (Lg) crabgrass (Preemergence, 31 g ai/ha, scale 0 to 100, 0 no effect, 100 complete control), the “Plant response rating, Crabgrass, Large” value is 85. In addition, the entries for the “Plant response rating, Barnyardgrass” value in the assay with barnyardgrass (setting [3]) and in the assay on barnyardgrass (setting [4]) were 20 and 60, respectively. Moreover, the “Ragweed plant response rating” value is 55 in the assay with ragweed (setting [5]), 85 in the assay with ragweed (setting [6]) and 100 with ragweed (setting [7]).
For `FCc1cccc(Oc2ncc(Cl)cn2)c1-n1cc(Cl)cn1` [Compound 250], the “Plant response rating, Pigweed” value in the assay with pigweed [1] (setting [3]) is 80; in the assay with pigweed [2] (setting [8]), 60; in the assay on pigweed [2] (setting [10]) it was 90. For the same molecule, the “Pigweed plant response rating (0 to 100 scale)” value with pigweed [1] (125 g ai/ha) is recorded as 100. Also, the “Lambsquarters plant response rating” value in the assay with lambsquarters (setting [5]) turned out to be 90; in the assay on lambsquarters (setting [7]), 100. The “Plant response rating, Lambsquarters” value in the assay with lambsquarters (setting [9]) is on record as 100. Further, the “Johnsongrass plant response rating” value in the assay on johnsongrass (setting [5]) worked out at 0; in the assay on johnsongrass (setting [7]) it was 70. Besides, the “Plant response rating, Johnsongrass” value with johnsongrass (setting [9]) worked out at 35. The “Plant response rating, Foxtail, Giant” value in the assay on giant foxtail (setting [8]) is 10; in the assay with giant foxtail (setting [10]), 80. The “Plant response rating, Corn” value is 10 in the assay on corn (setting [8]) and 30 with corn (setting [10]). The entries for the “Crabgrass, Large plant response rating” value in the assay with large (Lg) crabgrass (setting [5]) and with large (Lg) crabgrass (setting [7]) were 75 and 100, respectively. Besides, the “Plant response rating, Crabgrass, Large” value in the assay on large (Lg) crabgrass (setting [9]) is given as 98. Further, in the assay with barnyardgrass (setting [3]), the “Plant response rating, Barnyardgrass” value stood at 10. For the same molecule, the “Barnyardgrass plant response rating (0 to 100 scale, 0 is no effect, 100 is complete control)” value in the assay on barnyardgrass (125 g ai/ha) is on record as 90. Further, the “Ragweed plant response rating” value in the assay on ragweed (setting [5]) was 15; with ragweed (setting [7]), 75. Moreover, the “Plant response rating, Ragweed” value with ragweed (setting [9]) turned out to be 40.
On to `N#Cc1cccc(Oc2ncc(Cl)cn2)c1-n1cnc(C(F)(F)F)c1` [Compound 252, 3-[(5-chloro-2-pyrimidinyl)oxy]-2-[4-(trifluoromethyl)-1H-imidazol-1-yl]benzonitrile], for which the “Pigweed plant response rating (0 to 100 scale)” value in the assay on pigweed [1] (125 g ai/ha) turned out to be 100. Also, the pest or weed control at 31 g/ha in the assay on pigweed [1] (Amaranthus retroflexus, pre-emergence, 240 h, 31 g ai/ha, 0 to 100 scale where 0 is no effect and 100 is complete control, visual, approximately 10 days, read-out: Plant response rating, Pigweed) turned out to be 100%; with giant foxtail (Setaria faberi, post-emergence, 240 h, 31 g ai/ha, 0 to 100 scale, 0 no effect, 100 complete control, read-out: Plant response rating, Foxtail, Giant), 20%; with pigweed [2] (Amaranthus retroflexus, post-emergence, 31 g ai/ha, 0 to 100 scale, 0 no effect, 100 complete control, read-out: Plant response rating, Pigweed) it was 80%; in the assay on barnyardgrass (Echinochloa crus-galli, pre-emergence, 240 h, 31 g ai/ha, 0 to 100 scale where 0 is no effect and 100 is complete control, visual, approximately 10 days, read-out: Plant response rating, Barnyardgrass) it was 70%. Besides, the pest or weed control at 500 g/ha was 100% with pigweed [1] (Amaranthus retroflexus, pre-emergence, 240 h, 500 g ai/ha, 0 to 100 scale where 0 is no effect and 100 is complete control, read-out: Pigweed plant response rating); 100% in the assay with giant foxtail (Setaria faberi, post-emergence, 240 h, 500 g ai/ha, 0 to 100 scale where 0 is no effect and 100 is complete control, read-out: Plant response rating, Foxtail, Giant); 100% in the assay on pigweed [2] (Amaranthus retroflexus, post-emergence, 500 g ai/ha, 0 to 100 scale where 0 is no effect and 100 is complete control, read-out: Plant response rating, Pigweed); 100% with barnyardgrass (Echinochloa crus-galli, pre-emergence, 240 h, 500 g ai/ha, 0 to 100 scale where 0 is no effect and 100 is complete control, read-out: Barnyardgrass plant response rating). In addition, the pest or weed control at 16 g/ha came out at 98% in the assay with lambsquarters (Chenopodium album, pre-emergence, 16 g ai/ha, preemergence, scale 0 to 100 (0 no effect, 100 complete control), read-out: Lambsquarters plant response rating); 5% with johnsongrass (Sorghum halepense, pre-emergence, 16 g ai/ha, preemergence, scale 0 to 100 (0 no effect, 100 complete control), read-out: Johnsongrass plant response rating); 60% with large (Lg) crabgrass (Digitaria sanguinalis, pre-emergence, 16 g ai/ha, preemergence, scale 0 to 100 (0 no effect, 100 complete control), read-out: Crabgrass, Large plant response rating); 40% with ragweed (Ambrosia artemisiifolia, pre-emergence, 16 g ai/ha, preemergence, scale 0 to 100 (0 no effect, 100 complete control), read-out: Ragweed plant response rating). Further, the pest or weed control at 125 g/ha with lambsquarters (Chenopodium album, pre-emergence, 125 g ai/ha, preemergence, scale 0 (no effect) to 100 (complete control), read-out: Lambsquarters plant response rating) was 100%; in the assay with johnsongrass (Sorghum halepense, pre-emergence, 125 g ai/ha, preemergence, scale 0 (no effect) to 100 (complete control), read-out: Johnsongrass plant response rating), 100%; in the assay on giant foxtail (Setaria faberi, post-emergence, 240 h, 125 g ai/ha, 0 to 100 scale, 0 no effect, 100 complete control, read-out: Plant response rating, Foxtail, Giant), 100%; in the assay on pigweed [2] (Amaranthus retroflexus, post-emergence, 125 g ai/ha, 0 to 100 scale, 0 no effect, 100 complete control, read-out: Plant response rating, Pigweed) it was 100%; with large (Lg) crabgrass (Digitaria sanguinalis, pre-emergence, 125 g ai/ha, preemergence, scale 0 (no effect) to 100 (complete control), read-out: Crabgrass, Large plant response rating), 100%; in the assay with ragweed (Ambrosia artemisiifolia, pre-emergence, 125 g ai/ha, preemergence, scale 0 (no effect) to 100 (complete control), read-out: Ragweed plant response rating), 100%. Moreover, the pest or weed control at 62 g/ha with lambsquarters (Chenopodium album, pre-emergence, Preemergence, 62 g ai/ha, scale 0 to 100, 0 no effect, 100 complete control, read-out: Plant response rating, Lambsquarters) is 100%; with johnsongrass (Sorghum halepense, pre-emergence, Preemergence, 62 g ai/ha, scale 0 to 100, 0 no effect, 100 complete control, read-out: Plant response rating, Johnsongrass) it was 80%; in the assay on large (Lg) crabgrass (Digitaria sanguinalis, pre-emergence, Preemergence, 62 g ai/ha, scale 0 to 100, 0 no effect, 100 complete control, read-out: Plant response rating, Crabgrass, Large), 100%; with ragweed (Ambrosia artemisiifolia, pre-emergence, Preemergence, 62 g ai/ha, scale 0 to 100, 0 no effect, 100 complete control, read-out: Plant response rating, Ragweed) it was 98%. The molecule also displayed a Corn plant response rating (crop injury, 0 = no effect, 100 = complete kill) at 31 g/ha with corn (Zea mays, post-emergence, 240 h, 31 g ai/ha, 0 to 100 scale, 0 no effect, 100 complete control) of 20%. For the same molecule, in the assay with corn (Zea mays, post-emergence, 240 h, 125 g ai/ha, 0 to 100 scale, 0 no effect, 100 complete control), the Corn plant response rating (crop injury, 0 = no effect, 100 = complete kill) at 125 g/ha was determined as 60%. The molecule also came in with a Corn plant response rating (crop injury, 0 = no effect, 100 = complete kill) at 500 g/ha in the assay on corn (Zea mays, post-emergence, 240 h, 500 g ai/ha, 0 to 100 scale where 0 is no effect and 100 is complete control) of 90%. The “Barnyardgrass plant response rating (0 to 100 scale, 0 is no effect, 100 is complete control)” value in the assay with barnyardgrass (125 g ai/ha) stood at 100.
